# Data reported in US20180116983A1, “COMPOUNDS FOR TREATING DISORDERS ASSOCIATED WITH BK CHANNEL MODULATION” (Canbex Therapeutics Limited, priority 2015, published 2018).
# What was measured:
# [1] = system: OVA- and HDM-sensitized mice; conditions: cited from earlier work
# [2] = system: murine ex vivo lung slices; conditions: cited from earlier work
# isolated hearts = conditions: after cold cardioplegic arrest; cited from earlier work
# BK channel [3] = molecular target: T1, BK channel (Homo sapiens, UniProt Q12791); set-up: host or cells: human airway smooth muscle (ASM) cells; conditions: human ASM cells; cited from earlier work
# Target sequence in this assay (Q12791 whole entry): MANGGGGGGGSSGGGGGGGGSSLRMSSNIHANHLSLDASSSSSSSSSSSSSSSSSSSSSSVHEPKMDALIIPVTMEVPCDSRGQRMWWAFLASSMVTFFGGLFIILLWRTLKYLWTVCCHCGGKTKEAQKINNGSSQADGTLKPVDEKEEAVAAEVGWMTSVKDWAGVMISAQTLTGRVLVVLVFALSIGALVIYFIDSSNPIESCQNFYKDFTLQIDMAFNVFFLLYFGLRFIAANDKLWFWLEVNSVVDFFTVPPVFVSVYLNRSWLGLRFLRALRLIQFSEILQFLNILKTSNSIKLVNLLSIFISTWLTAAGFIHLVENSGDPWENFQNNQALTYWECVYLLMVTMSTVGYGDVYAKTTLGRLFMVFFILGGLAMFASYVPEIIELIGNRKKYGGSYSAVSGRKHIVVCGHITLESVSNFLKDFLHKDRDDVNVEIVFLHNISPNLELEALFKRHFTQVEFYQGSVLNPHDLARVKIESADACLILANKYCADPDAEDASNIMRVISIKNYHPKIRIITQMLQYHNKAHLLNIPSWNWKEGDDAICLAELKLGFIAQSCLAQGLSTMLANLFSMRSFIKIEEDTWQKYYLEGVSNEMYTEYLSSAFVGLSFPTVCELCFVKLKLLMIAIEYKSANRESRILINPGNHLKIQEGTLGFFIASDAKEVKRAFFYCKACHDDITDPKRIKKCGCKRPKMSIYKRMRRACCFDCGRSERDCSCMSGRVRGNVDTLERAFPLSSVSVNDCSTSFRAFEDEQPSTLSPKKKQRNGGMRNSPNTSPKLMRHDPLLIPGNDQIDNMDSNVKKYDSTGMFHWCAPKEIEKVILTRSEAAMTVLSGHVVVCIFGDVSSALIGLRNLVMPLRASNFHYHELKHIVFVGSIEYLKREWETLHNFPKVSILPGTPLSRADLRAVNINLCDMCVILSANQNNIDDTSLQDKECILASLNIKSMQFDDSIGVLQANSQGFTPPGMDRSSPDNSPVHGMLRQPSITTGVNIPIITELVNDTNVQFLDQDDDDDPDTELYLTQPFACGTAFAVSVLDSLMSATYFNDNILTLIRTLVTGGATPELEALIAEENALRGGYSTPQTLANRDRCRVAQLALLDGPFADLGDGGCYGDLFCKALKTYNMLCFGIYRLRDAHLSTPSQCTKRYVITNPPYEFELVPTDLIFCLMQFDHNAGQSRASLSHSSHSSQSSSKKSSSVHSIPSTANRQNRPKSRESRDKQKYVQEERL
# [4] = molecular target: T2, BKCa channels formed by the exon-less alpha subunit (Homo sapiens, UniProt Q12791); test: Whole-cell BKCa current in HEK293 cells expressing the alpha subunit alone; type: cell-based; conditions: HEK293
# T2 construct: expressed in transfected cells; host or cells: HEK293
# KNCMA1 = molecular target: T3, KNCMA1 (Sus scrofa, UniProt O18866); test: Whole-cell current in primary pig aortic endothelial cells; type: cell-based
# T3 construct: endogenous in cells; host or cells: primary pig aortic endothelial cells
# Text: Pig aortic endothelial cells only express KNCMAI and not KNCMB1-4 (Papassotiriou et al). Thus, the absence of stimulation indicates a lack of effect on KNCMA1.
# [5] = system: C57BL/6.Fmr1 knockout mice; test: Contextual fear conditioning in Fmr1 knockout mice; type: in vivo, mouse; conditions: wildtype mice; 2 mg/kg
# Protocol: Animals: C57BL/6.J. Fmr1-K02 mice, which have a deletion of the promoter and exonl of the Fmr1 gene (Mientjes et al., 2006) and C57BL/6J wild type (WT) were originated from the Jackson laboratory (Ann Harbor, USA). Mice were housed in groups (4-6 per cage) and all animals were provided with ad libitum food and water unless otherwise stated. Mice were maintained on a 12 h light/12 h dark cycle (lights off 19:00 to 7:00) in a temperature-controlled environment (21±1° C.). Testing was conducted in the light phase. Mice were housed in commercial cages and experiments were performed in line with the United Kingdom Animals (Scientific procedures) Act 1986. All experiments were conducted with experimentors blind to genotype and drug treatment. Each experimental group contained 10 animals.
# Drug Treatment: VSN16R was dissolved in saline for injection intravenously via a tail vein using 2 mg/kg a 30 g needle in a volume of 0.1 ml. Animals were inspected for differences in coat appearance, to detect whether any piloerection was present. The eye condition (runny eyes or porphyria, ptosis), gait appearance, tremor, tail tone, reactivity to handling was assessed to detect adverse behavioural effect.
# Contextual fear conditioning: Animals are trained to expect an electroshock treatment within a defined environment, such that on subsequent presentation of the environment, freezing behaviours are induced. […]
# mesenteric arteries = conditions: cited from earlier work
# [6] = system: salicylate-induced tinnitus in rats; conditions: cited from earlier work
# Fmr1 knockout mouse = conditions: cited from earlier work
# maxi-K channels = maxi-K channels (Homo sapiens, UniProt Q12791); conditions: cited from earlier work
# [7] = system: rat models of permanent large-vessel stroke; conditions: cited from earlier work
# BK channel [8] = molecular target: T1, BK channel; test: Inside-out patch clamp (single channel) on EA.hy926 cells; type: cell-based; set-up: The human umbilical vein derived endothelial cell line, EA.hy926; endogenous in cells; host or cells: EA.hy926 human endothelial cell line; conditions: human EA.hy926 cells, calcium dependent
# Protocol: The human umbilical vein derived endothelial cell line, EA.hy926 (Edgell et al., Proc Natl Acad Sci USA. 1983 June; 80(12): 3734-7) at passage >45 was grown in DMEM containing 10% FCS and 1% HAT (5 mM hypoxanthine, 20 μM aminopterin, 0.8 mM thymidine) and cells were maintained in an incubator at 37° C. in 5% CO2 atmosphere. Cells were plated on either 10 mm (for patch-clamp recordings) or 30 mm glass cover slips (for Ca^2+ measurements).
# Single-channel recordings were obtained from excised inside-out membrane patches in symmetrical solutions. The pipettes were filled with (in mM) 140 KCl, 10 HEPES, 1 MgCl2, 5 EGTA, 4,931 CaCl2 with pH 7.2 by adding KOH (i.e. 10 μM free Ca^2+, G. Droogmans, Leuven, Belgium; ftp://ftp.cc.kuleuven.ac.be/pub/droodmans/cabuf.zip). Cells were perfused with a standard bath solution containing (in mM) 140 NaCl, 5 KCl, 1.2 MgCl2, 10 HEPES, 10 glucose, 2.4 CaCl2. Following gigaseal formation, bath solution was switched to the following (in mM) 140 KCl, 10 HEPES, 1 MgCl2, 5 EGTA and a desired free Ca^2+ concentration which was adjusted by adding different amounts of CaCl2 calculated by the program CaBuf. pH was adjusted to 7.2 by adding KOH. Membrane currents and potential were recorded using a List EPC7 amplifier (List, Germany) and pClamp (version 8.2, Axon Instruments) software.
# Target sequence in this assay (Q12791 1-1178 isoform Q12791-5): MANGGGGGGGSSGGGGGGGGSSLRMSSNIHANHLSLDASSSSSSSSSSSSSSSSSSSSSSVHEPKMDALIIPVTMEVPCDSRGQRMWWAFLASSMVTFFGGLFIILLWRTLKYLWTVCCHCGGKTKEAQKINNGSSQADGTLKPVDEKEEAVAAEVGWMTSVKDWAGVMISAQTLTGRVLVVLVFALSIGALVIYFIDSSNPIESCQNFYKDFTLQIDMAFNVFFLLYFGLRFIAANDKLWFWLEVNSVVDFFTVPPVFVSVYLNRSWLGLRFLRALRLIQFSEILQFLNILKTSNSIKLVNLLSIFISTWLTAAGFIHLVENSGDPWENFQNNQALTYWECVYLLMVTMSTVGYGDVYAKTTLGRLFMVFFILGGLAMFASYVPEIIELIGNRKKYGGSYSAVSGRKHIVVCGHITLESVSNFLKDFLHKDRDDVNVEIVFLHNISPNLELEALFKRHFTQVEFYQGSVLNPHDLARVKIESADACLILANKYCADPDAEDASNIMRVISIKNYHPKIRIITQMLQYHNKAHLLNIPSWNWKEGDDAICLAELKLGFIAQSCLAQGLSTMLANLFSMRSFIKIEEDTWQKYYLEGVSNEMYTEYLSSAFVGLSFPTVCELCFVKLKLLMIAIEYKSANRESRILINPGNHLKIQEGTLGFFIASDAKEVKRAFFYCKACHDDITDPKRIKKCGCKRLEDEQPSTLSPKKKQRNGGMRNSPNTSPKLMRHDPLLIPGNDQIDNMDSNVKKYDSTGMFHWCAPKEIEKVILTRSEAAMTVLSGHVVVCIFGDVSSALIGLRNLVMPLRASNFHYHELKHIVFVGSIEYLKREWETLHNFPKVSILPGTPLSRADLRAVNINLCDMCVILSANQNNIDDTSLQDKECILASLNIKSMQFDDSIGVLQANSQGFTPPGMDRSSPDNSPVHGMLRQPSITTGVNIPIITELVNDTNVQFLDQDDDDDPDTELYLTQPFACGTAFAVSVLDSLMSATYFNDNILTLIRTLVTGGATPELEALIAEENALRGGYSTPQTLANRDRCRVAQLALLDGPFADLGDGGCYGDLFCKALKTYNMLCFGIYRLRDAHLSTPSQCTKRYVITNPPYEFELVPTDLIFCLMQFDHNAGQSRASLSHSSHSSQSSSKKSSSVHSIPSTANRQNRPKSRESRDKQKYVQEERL
# Target sequence in this assay (Q86W47 whole entry partner): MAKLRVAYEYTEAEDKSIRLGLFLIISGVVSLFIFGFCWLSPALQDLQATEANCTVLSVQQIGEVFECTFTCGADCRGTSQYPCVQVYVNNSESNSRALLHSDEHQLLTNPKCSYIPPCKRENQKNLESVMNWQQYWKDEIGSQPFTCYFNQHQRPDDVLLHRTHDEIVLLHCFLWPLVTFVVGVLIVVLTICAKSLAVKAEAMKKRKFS
# T2 sequence (Q12791 1-1178 isoform Q12791-5): as the sequence (Q12791 1-1178 isoform Q12791-5) above
# T3 sequence (O18866 whole entry): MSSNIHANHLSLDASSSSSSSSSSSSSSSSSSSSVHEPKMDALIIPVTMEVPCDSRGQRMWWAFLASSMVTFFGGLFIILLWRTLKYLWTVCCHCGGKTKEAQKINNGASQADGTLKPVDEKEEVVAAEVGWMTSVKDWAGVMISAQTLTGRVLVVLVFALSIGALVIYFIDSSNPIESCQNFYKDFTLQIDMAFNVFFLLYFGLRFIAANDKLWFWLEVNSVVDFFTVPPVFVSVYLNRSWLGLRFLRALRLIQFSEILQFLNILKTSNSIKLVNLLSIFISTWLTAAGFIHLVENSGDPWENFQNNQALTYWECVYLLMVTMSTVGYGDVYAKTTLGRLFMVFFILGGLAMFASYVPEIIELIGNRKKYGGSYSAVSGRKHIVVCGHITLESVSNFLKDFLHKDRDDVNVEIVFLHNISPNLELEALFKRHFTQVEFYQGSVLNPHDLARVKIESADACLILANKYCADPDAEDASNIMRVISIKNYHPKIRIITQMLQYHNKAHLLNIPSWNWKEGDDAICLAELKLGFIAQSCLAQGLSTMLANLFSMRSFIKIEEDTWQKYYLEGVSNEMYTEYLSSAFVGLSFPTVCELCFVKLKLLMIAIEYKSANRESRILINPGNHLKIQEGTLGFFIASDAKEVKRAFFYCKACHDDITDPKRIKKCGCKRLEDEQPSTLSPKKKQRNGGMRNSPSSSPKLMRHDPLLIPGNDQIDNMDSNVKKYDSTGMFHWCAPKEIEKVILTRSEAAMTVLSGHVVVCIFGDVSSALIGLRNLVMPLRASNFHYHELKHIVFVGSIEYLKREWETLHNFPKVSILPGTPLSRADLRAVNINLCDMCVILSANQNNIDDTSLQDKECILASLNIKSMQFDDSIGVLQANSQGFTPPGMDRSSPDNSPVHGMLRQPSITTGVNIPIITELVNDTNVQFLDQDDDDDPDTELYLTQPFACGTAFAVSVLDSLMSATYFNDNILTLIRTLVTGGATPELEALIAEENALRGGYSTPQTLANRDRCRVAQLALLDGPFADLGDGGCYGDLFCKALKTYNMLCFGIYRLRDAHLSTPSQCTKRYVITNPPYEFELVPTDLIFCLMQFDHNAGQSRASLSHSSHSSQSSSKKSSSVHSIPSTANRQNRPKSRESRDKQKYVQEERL
# maxi-K channels, sequence (Q12791 whole entry): as the sequence (Q12791 whole entry) above
smiles,measurement,setting,value
CC(=O)c1c(O)c(C)c(O)c(Cc2c(O)c3c(c(C(=O)/C=C/c4ccccc4)c2O)OC(C)(C)C=C3)c1O [rottlerin],reduction in Th2 cytokines,[1]; bronchoalveolar lavage fluid,20-35%
same,reduction in inflammatory cells,[1]; bronchoalveolar lavage fluid,35-40%
same,reduction of AHR,"[1]; intravenous, within 5 minutes, OVA-asthma mice, P<0.01",45%
same,methacholine-induced airway hyperreactivity (AHR),[1]; systemic administration,reduces methacholine-induced airway hyperreactivity
same,frequency of acetylcholine-induced Ca2+ oscillations,[2],reduces the frequency of acetylcholine-induced Ca^2+ oscillations
same,cardiac contractile performance and coronary perfusion,isolated hearts,increases cardiac contractile performance and coronary perfusion
same,BK channel activity,BK channel [3],increases BK channel activity
"CC[N+](CC)(CC)CC [TEA, reference compound]",suppression of BKCa current,[4]; 5 mM,consistently suppressed the BKCa current
"Nc1ncc(Cc2ccc(Br)cc2)s1 [NS19504, 5-[(4-bromophenyl)methyl]-2-thiazolannine, reference compound]",enhancement of BKCa current,"[4]; 10 μM, steps −40 mV to +70 mV, 200 nM calcium",approximately doubled
"CC(C)(O)[C@H]1O[C@H]2CC[C@@]3(C)[C@@](O)(CC[C@H]4Cc5c([nH]c6ccccc56)[C@@]43C)C2=CC1=O [paxilline, (2R,4bS,6aS,12bS,12cR,14aS)-5,6,6a,7,12,12b,12c,13,14,14a-Decahydro-4b-hydroxy-2-(1-hydroxy-1-methylethyl)-12b,12c-dimethyl-2H-pyrano[2″,3″:5′,6′]benz[1′,2′:6,7]indeno[1,2-b]indol-3(4bH)-one, reference compound]",suppression of BKCa current,[4]; 10 μM,suppressed
same,suppression of BKCa current,"[4]; 10 μM, listed as Paxilline",consistently suppressed the BKCa current
CC(CO)NC(=O)c1cccc(/C=C\CCCC(=O)N(C)C)c1 (centres unmarked) [VSN16],effect on current,KNCMA1; no BK beta chains,does not stimulate pig aortic endothelial cells
same,fear conditioning and digging behaviour in wildtype mice,[5],exhibited no-inhibitory effect
same,relaxation of mesenteric arteries,mesenteric arteries,relaxed mesenteric arteries in an endothelium-dependent manner
same,"vasorelaxation in the presence of rimonabant, AM 251 or O-1918",mesenteric arteries; high concentrations of the antagonists,antagonized
COc1ccc(Cl)cc1[C@@]1(F)C(=O)Nc2cc(C(F)(F)F)ccc21 [R-Maxipost],effect on tinnitus,[6]; dose not given,maintained the positive effect on tinnitus
"Clc1ccccc1C(c1ccccc1)(c1ccccc1)n1cccn1 [TRAM-34, reference compound]",effect on residual current,KNCMA1; IK channel blocker after VSN16R,a minor effect on this residual current
COc1ccc(Cl)cc1[C@]1(F)C(=O)Nc2cc(C(F)(F)F)ccc21 [BMS-204352],behavioural effects of tinnitus,[6]; 10 mg/kg,abolished
same,FXS-associated phenotypes,Fmr1 knockout mouse,could inhibit the FXS-associated phenotypes
same,opening of maxi-K channels,maxi-K channels,"potent, effective and uniquely Ca^2+-sensitive opener"
same,cortical neuroprotection,[7]; administered two hours after onset of occlusion,provided significant levels of cortical neuroprotection
same,blood pressure or cerebral blood flow,"[7]; rat, in vivo",had no effect on blood pressure or cerebral blood flow
"CC(NC(=O)c1cccc(/C=C\CCCC(=O)N(C)C)c1)C(=O)O [VSN44R, (Z)-(3-(6-(dimethylamino)-6-oxohex-1-en-1-yl)benzoyI)-D-alanine]",activation of the response of the channel,BK channel [8],activation of the response of the channel
